Measured values taken from US6780853B1, “Neuroactive steroids of the androstane and pregnane series” (priority 1995, dated 2004).
Where a name gives a salt, the structure may show the parent alone.

Tests used:
[1] = system: time spent on the open-arms; experiment: Elevated plus-maze test; type: in vivo, N.I.H. Swiss-Webster mice
Source text: The theoretical basis for the elevated plus-maze test is similar to that of the fight/dark transition test. As it was described previously by Pellow et al. J. Neurosci. Meth. 14:149-167 (1985)), the elevated plus-maze apparatus is designed to utilize the mice's natural aversion to open spaces. The apparatus consists of two open-arms and two enclosed-arms. The elevated plus-maze test allows for two measures of anxiety, the number of entries into the open-arms and the time spent on the open-arms, both expressed as a percentage of the total number of entries and time spent in/on both the open-arms and enclosed-arms.
Male N.I.H Swiss-Webster mice (Harlan, Indianapolis, Ind.) weighing 15-20 g were housed four per cage in polyethylene cages with sawdust bedding. The colony room was environmentally controlled (22° C.) with a 12 hr light/dark cycle (0600-1800 hr). Food and water were available ad libitum, except during testing. The experiments were run from 0700-1500 hr and groups were counterbalanced for time of day effects. Mice were only administered drug or vehicle once.
The method used was previously described (Lister, Psychopharmacol. 92:180-185 (1987)). The apparatus included two open arms perpendicular to two enclosed arms elevated 50 cm from the floor. Each arm was 50 cm long and the walls of the enclosed arms were 40 cm tall. The maze was made completely of black plexiglass. Incandescent 200 W light bulbs were above each of the open arms to produce a strong contrast between the open arms and the enclosed arms.
[…] Swiss-Webster mice were placed in the center of the plus-maze facing an open arm. During the 5 min test period, the number of entries onto the open arms and the enclosed arms, and the time spent in the open arms and enclosed arms were measured. All four paws had to be within an arm for the dependent variable to be measured. Therefore, the time spent in the center of the maze is not counted, so the total time spent in the open arms and the enclosed arms may not equal 5 min.

[2] = target: GABA receptor complex (GRC); experiment: [35S]TBPS binding in rat cerebral cortex P2 homogenate; settings: for IC50: concentration to inhibit 50% of control [35S]TBPS binding, 2 nM [35S]TBPS; for IMAX (maximum inhibition): maximum inhibition of [35S]TBPS binding
Source text: To those skilled in the art, it is known that the modulation of [^35S]t-butylbicyclophosphorothionate ([^35S]TBPS) binding is a measure of the potency and efficacy of drugs acting at the GRC, which drugs may be of potential therapeutic value in the treatment of stress, anxiety, and seizure disorders (Squires, R. F., et al., Mol, Pharmacol., 23:326 (1983); Lawrence, L. J., et al., Biochem. Biophys. Res. Comm., 123:1130-1137 (1984); Wood, et al., Pharmacol, Exp. Ther., 231:572-576 (1984)). Several experiments were performed previously to determine the nature of the modulation of [^35S]TBPS as affected by neuroactive steroids. […] Furthermore, these compounds have high potency and efficacy at the GRC, with stringent structural requirements for such activity.
The procedures for performing this assay are fully discussed in: (1) Gee, K. W. et al., European Journal of Pharmacology, 136:419-423 (1987)); and (2) Gee, et al., Molecular Pharmacology 30:218 (1986). These procedures were performed as follows:
Brains from male Sprague-Dawley rats were removed immediately following sacrifice and the cerebral cortices dissected over ice. A P2 homogenate was prepared as previously described (Gee, et al., Molecular Pharmacology 30:218 (1986)). Briefly, the cortices were gently homogenized in 032 M sucrose followed by centrifugation at 1000×g for 10 minutes. The supernatant was collected and centrifuged at 9000×g for 20 minutes. The resultant P2 pellet was suspended as a 10% (original wet weight/volume) suspension in 50 mM Na/K phosphate buffer (pH 7.4) 200 mM NaCl to form the homogenate.
One hundred microliter […] aliquots of the P2 homogenate (0.5 milligrams (mg) protein) were incubated with 2 nanomolar (nM) [^35S]TBPS (70-110 curies/millimole; New England Nuclear, Boston, Mass.) in the presence or absence of the naturally occurring steroids or their synthetic derivatives to be tested. The tested compounds were dissolved in dimethylsulfoxide (Baker Chem. Co., Phillipsburg, N.J.) and added to the incubation mixture in 5 μL aliquots. The incubation mixture was brought to a final volume of 1 mL with buffer. Non-specific binding was defined as binding in the presence of […]. The effect and specificity of GABA (Sigma Chem. Co., St. Louis, Mo.) was evaluated by performing all assays in the presence of GABA plus (+)bicuculline (Sigma Chem. Co.). Incubations maintained at 25° C. for 90 minutes (steady state conditions) were terminated by rapid filtration through glass fiber filters (No. 32, Schleicher and Schuell, Keene, N.H.). Filter-bound radioactivity was quantitated by liquid scintillation spectrophotometry. Kinetic data and compound/[^35S]TBPS dose-response curves were analyzed by nonlinear regression using a computerized iterative procedure to obtain rate constants and IC50 (concentration of compound at which half-maximal inhibition of basal [^35S]TBPS binding occurs) values.
Various compounds were screened to determine their potential as modulators of [^35S]TBPS binding in vitro. These assays were performed in accordance with the above discussed procedures. Based on these assays, we have established the structure-activity requirements for their specific interaction at the GRC and their rank order potency and efficacy. Experimental data obtained in this assay for a number of 3α-hydroxypregnan-20-one derivatives is discussed in Gee, K. W. et al., European Journal of Pharmacology, 136:419-423 (1987) and in U.S. Pat. No. 5,232,917. Table 1 provides IC50 and maximum inhibition (IMAX) measurements for numerous compounds, including examples of compounds disclosed and claimed herein. IC50 is defined as concentration of compounds to inhibit 50% of control [^35S]TBPS binding. It is an indication of a compound's in vitro potency. Maximum inhibition is an indication of a compound's in vitro efficacy.

[3] = system: metrazol induced convulsions; experiment: Antimetrazol activity in mice; type: in vivo; settings: IP
Procedure: Experiments were also performed to determine the physiological relevance of neuroactive steroid and GABA receptor interactions by assessing the ability of compounds of the present invention to prevent metrazol induced convulsions in mice. Mice were injected with various doses of the test compounds of the invention, 10 minutes prior to the injection of metrazol. The time to onset of myoclonus (presence of forelimb clonic activity) induced by metrazol was determined by observing each mouse for a period of 30 minutes. In control mice, metrazol (85 mg/kg) will induce convulsion in 95% of the animals.
The anticonvulsant tests are similar to that described above.

Progesterone Receptors = experiment: Inhibition of 3H-Progesterone Binding to the Bovine Uteral Progesterone Receptors; settings: competitor 10^−6M; 3H-progesterone 0.15 nM
[4] = 50% hpbcd, 10 mg/kg, 10 min before metrazol 85 mg/kg

Compound | melting point [°C] | Plus-Maze (% Control), time spent on the open-arms ([1]; IP, 50% hpbcd, 10 mg/kg) [% Control] | IC50 [2] [nM] | IMAX (maximum inhibition) [2] [%] | % Protected [3, 4] [%] | other results
CO[C@H]1CC[C@H]2[C@@H]3CC[C@@H]4C[C@H](OC(=O)C(C)C)CC[C@]4(C)[C@H]3CC[C@]12C | 82 to 87 | – | – | – | – | –
C[C@@]1(O)CC[C@@]2(C)[C@@H](CC[C@@H]3[C@@H]2CC[C@]2(C)[C@@H](C(=O)COc4ccc([N+](=O)[O-])cc4)CC[C@@H]32)C1 | 169 to 172 | – | – | – | – | –
CC12CCC(O)CC1CCC1C2CCC2(C)C(C(=O)CSc3ncc[nH]3)CCC12 (stereo not drawn) [3α-Hydroxy-21-(imidazo-2-ylthio)-5β-pregnan-20-one] | – | 166 | 184 | 80 | 6.25 | –
C[C@]12CC[C@@H](O)C[C@H]1CC[C@@H]1[C@@H]2CC[C@]2(C)[C@@H](C(=O)CSc3ccccn3)CC[C@@H]12 [3α-Hydroxy-21-(pyrid-2-ylthio)-5β-pregnan-20-one] | – | – | 90 | 66 | – | Plus-Maze (% Control), time spent on the open-arms ([1]; IP, 50% hpbcd, 20 mg/kg): 187 % Control; % Protected ([3]; 50% hpbcd, 20 mg/kg): 12.5%
C[C@]12CC[C@@H](O)C[C@H]1CC[C@@H]1[C@@H]2CC[C@]2(C)[C@@H](C(=O)C[S+]([O-])c3ccncc3)CC[C@@H]12 (stereo partly drawn) [3α-Hydroxy-21-(pyrid-4-ylsulfinyl)-5β-pregnan-20-one] | – | 171 | 235 | 73 | 25 | –
C[C@]12CC[C@@H](O)C[C@H]1CC[C@@H]1[C@@H]2CC[C@]2(C)[C@@H](C(=O)COc3cccnc3)CC[C@@H]12 [3α-hydroxy-21-(pyrid-3-yl)oxy-5β-pregnan-20-one] | 63 to 66 | – | 76 | 76 | – | –
C[C@]12CC[C@@H](O)C[C@@H]1CC[C@@H]1[C@@H]2CC[C@]2(C)[C@@H](C(=O)CSc3ccncc3)CC[C@@H]12 [3α-hydroxy-21-(pyrid-4-ylthio)-5α-pregnan-20-one] | 154 to 156 | 148 | 23 | 98 | 62.5 | –
C[C@]12CC[C@@H](O)C[C@H]1CC[C@@H]1[C@@H]2CC[C@]2(C)[C@@H](C(=O)CSc3ccncc3)CC[C@@H]12 [3α-hydroxy-21-(pyrid-4-ylthio)-5β-pregnan-20-one] | – | 151 | 59 | 74 | 75 | –
C[C@]12CC[C@@H](O)C[C@H]1CC[C@@H]1[C@@H]2CC[C@]2(C)[C@@H](C(=O)CSCCO)CC[C@@H]12 [3α-hydroxy-21-hydroxyethylthio-5β-pregnan-20-one] | 150 to 152 | – | 141 | 71 | 12.5 | –
COC1CCC2C3CCC4CC(O)(C#Cc5ccc(C(C)=O)cc5)CCC4(C)C3CCC12C (stereo not drawn) [3β-(4′-acetylphenylethynyl)-3α-hydroxy-17β-methoxy-5β-androstane] | 189 to 191 | 129 | 20 | 104 | 25 | –
COC1CCC2C3CCC4CC(O)(C#CCCOC(=O)CCC(=O)O)CCC4(C)C3CCC12C (stereo not drawn) [3β-(4′-hydroxy-1′-butynyl)-3α-hydroxy-17β-methoxy-5β-androstane 4′-hemisuccinate sodium salt] | – | – | 108 | 100 | – | Plus-Maze (% Control), time spent on the open-arms ([1]; PO, water, 10 mg/kg): 309 % Control; % Protected ([3]; water, 10 mg/kg): 75%
C#C[C@@]1(O)CC[C@@]2(C)[C@@H](CC[C@@H]3[C@@H]2CC[C@]2(C)[C@@H](OC)CC[C@@H]32)C1 [3β-Ethynyl-3α-hydroxy-17β-methoxy-5α-androstane] | – | 129 | 122 | 106 | – | –
C#CC1(O)CCC2(C)C(CCC3C2CCC2(C)C(C(=O)CSCCS(=O)(=O)O)CCC32)C1 (stereo not drawn) [3β-ethynyl-3α-hydroxy-21-thioethanesulfonate-5β-pregnan-20-one sodium salt] | – | 127 | 607 | 93 | 0 | –
CC(=O)[C@H]1CC[C@H]2[C@@H]3CC[C@@H]4C[C@H](O)CC[C@]4(C)[C@H]3CC[C@]12C [5β-pregnan-3α-of-20-one, 5β-pregnan-3α-ol-20 -one] | – | – | – | – | – | % of Inhibition (Progesterone Receptors): 9%
C[C@]12CC[C@@H](O)C[C@@H]1CC[C@@H]1[C@@H]2CC[C@]2(C)[C@@H](OCCO)CC[C@@H]12 [17β-(2-Hydroxyethoxy)-3α-hydroxy-5α-androstane] | 181 to 183 | – | 534 | 99 | – | –
CC(=O)c1ccc(C#CCO[C@H]2CC[C@H]3[C@@H]4CC[C@H]5C[C@](C)(O)CC[C@]5(C)[C@H]4CC[C@]23C)cc1 [17β-[3-(4-Acetylphenyl)-2-propynyloxy]-3α-hydroxy-3β-methyl-5α-androstane] | 52 to 55 | – | 316 | 95 | – | –
COCC1(O)CCC2(C)C(CCC3C2CCC2(C)C(C(=O)CSc4ccc(N)cc4)CCC32)C1 (stereo not drawn) [21-(4′-aminophenylthio)-3α-hydroxy-3β-methoxymethyl-5α-pregnan-20-one] | 150 to 156 | – | 127 | 89 | – | –
CCC(=O)[C@@]1(C)CC[C@H]2[C@@H]3CCC4=CC(=O)CCC4=C3CC[C@@]21C [Example R5020] | – | – | – | – | – | % of Inhibition (Progesterone Receptors): 100%
